How the values were obtained:
Type in all cases: biochemical
K-Ras G13C = K-Ras G13C (Homo sapiens (Human), UniProt P01116+P62937, G13C); test: Ras-Raf (BRAF RBD) disruption / FRET / MOA assay, KRAS G13C; conditions: KRAS G13C; Ras-Raf disruption/FRET/MOA assay; read-out: IC50* KRAS G13C FRET data
Procedure, shortened: (§1)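 Ternary complex formation (Ras–compound–cyclophilin A) displacing BRAF RBD, monitored by TR-FRET. Three hours at 25° C with compound (top 30 μM final), then 1.5 h with the labelled antibodies. Lower ratio than DMSO indicates disruption; IC50 reported.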

KRAS G12S = KRAS G12S (Homo sapiens (Human), UniProt P01116+P62937, G12S); test: Ras-Raf (BRAF RBD) disruption / FRET / MOA assay, KRAS G12S; conditions: Ras-Raf disruption/FRET/MOA assay; class symbols; read-out: KRAS G12S FRET data IC50
KRAS G12S, sequence (P01116-2 other isoform, or with tags, fused parts or gaps G12S): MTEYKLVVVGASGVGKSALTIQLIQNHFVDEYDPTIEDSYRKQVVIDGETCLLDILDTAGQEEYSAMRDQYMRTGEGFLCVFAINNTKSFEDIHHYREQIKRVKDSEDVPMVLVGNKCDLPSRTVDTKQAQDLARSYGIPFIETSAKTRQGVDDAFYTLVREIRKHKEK
KRAS G12S, sequence (P62937 whole entry): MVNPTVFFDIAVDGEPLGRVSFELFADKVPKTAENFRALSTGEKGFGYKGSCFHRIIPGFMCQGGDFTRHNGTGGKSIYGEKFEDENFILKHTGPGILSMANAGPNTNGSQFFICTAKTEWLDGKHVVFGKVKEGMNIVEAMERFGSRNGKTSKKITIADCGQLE
Procedure, shortened: as §1

KRAS G12D = KRAS G12D (Homo sapiens (Human), UniProt P01116+P62937, G12D); test: Ras-Raf (BRAF RBD) disruption / FRET / MOA assay, KRAS G12D; conditions: Ras-Raf disruption/FRET/MOA assay; class symbols; read-out: KRAS G12D FRET data IC50
KRAS G12D, sequence (P01116-2 other isoform, or with tags, fused parts or gaps G12D): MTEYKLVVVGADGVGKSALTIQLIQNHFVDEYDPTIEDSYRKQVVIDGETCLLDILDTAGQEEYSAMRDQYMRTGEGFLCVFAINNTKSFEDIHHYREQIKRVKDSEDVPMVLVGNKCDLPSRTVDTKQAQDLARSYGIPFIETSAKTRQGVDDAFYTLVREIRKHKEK
KRAS G12D, sequence (P62937 whole entry): as the sequence (P62937 whole entry) above
Procedure, shortened: as §1

KRAS WT = KRAS WT (Homo sapiens (Human), UniProt P01116+P62937); test: Ras-Raf (BRAF RBD) disruption / FRET / MOA assay, KRAS WT; conditions: read-out: IC50* KRAS WT FRET data
KRAS WT, sequence (P01116-2 other isoform, or with tags, fused parts or gaps): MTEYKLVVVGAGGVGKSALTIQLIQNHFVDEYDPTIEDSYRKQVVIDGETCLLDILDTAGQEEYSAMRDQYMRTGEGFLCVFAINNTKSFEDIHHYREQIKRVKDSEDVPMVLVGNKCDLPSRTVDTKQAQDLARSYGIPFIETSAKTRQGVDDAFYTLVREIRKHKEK
KRAS WT, sequence (P62937 whole entry): as the sequence (P62937 whole entry) above
Procedure, shortened: as §1

KRAS Q61H = KRAS Q61H (Homo sapiens (Human), UniProt P01116+P62937, Q61H); test: Ras-Raf (BRAF RBD) disruption / FRET / MOA assay, KRAS Q61H; conditions: Ras-Raf disruption/FRET/MOA assay; class symbols; read-out: KRAS Q61H FRET data IC50
KRAS Q61H, sequence (P01116-2 other isoform, or with tags, fused parts or gaps Q61H): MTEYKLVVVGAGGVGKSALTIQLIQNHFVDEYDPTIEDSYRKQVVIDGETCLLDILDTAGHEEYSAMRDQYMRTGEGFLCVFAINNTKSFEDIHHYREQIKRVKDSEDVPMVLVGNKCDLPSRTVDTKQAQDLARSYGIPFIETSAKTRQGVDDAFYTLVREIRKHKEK
KRAS Q61H, sequence (P62937 whole entry): as the sequence (P62937 whole entry) above
Procedure, shortened: (§2)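 Compounds were tested as a 10-point 3-fold dilution series from 30 μM final for their ability to drive ternary complex formation between nucleotide-loaded Ras and cyclophilin A, displacing the BRAF RBD. After 3 h at 25° C., anti-His Eu-W1024 (10 nM) and anti-GST allophycocyanin (50 nM) were added for 1.5 h. A TR-FRET ratio decrease versus DMSO gave IC50.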

NRAS G12C = NRAS G12C (Homo sapiens (Human), UniProt P01111+P62937, G12C); test: Ras-Raf (BRAF RBD) disruption / FRET / MOA assay, NRAS G12C; conditions: read-out: IC50* NRAS G12C FRET data
NRAS G12C, sequence (P01111 whole entry G12C): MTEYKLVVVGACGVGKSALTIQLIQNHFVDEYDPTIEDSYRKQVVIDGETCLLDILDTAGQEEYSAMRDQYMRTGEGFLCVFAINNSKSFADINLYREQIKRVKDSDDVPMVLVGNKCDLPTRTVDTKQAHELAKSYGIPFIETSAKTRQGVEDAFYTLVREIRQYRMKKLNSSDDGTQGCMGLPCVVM
NRAS G12C, sequence (P62937 whole entry): as the sequence (P62937 whole entry) above
Procedure, shortened: as §1

NRAS Q61R = NRAS Q61R (Homo sapiens (Human), UniProt P01111+P62937, Q61R); test: Ras-Raf (BRAF RBD) disruption / FRET / MOA assay, NRAS Q61R; conditions: NRAS Q61R; Ras-Raf disruption/FRET/MOA assay; read-out: IC50* NRAS Q61R FRET data
NRAS Q61R, sequence (P01111 whole entry Q61R): as the sequence (P01111 whole entry G12C) above, with C12G, Q61R counted along it
NRAS Q61R, sequence (P62937 whole entry): as the sequence (P62937 whole entry) above
Procedure, shortened: as §2

NRAS Q61K = NRAS Q61K (Homo sapiens (Human), UniProt P01111+P62937, Q61K); test: Ras-Raf (BRAF RBD) disruption / FRET / MOA assay, NRAS Q61K; conditions: NRAS Q61K; Ras-Raf disruption/FRET/MOA assay; read-out: IC50* NRAS Q61K FRET data
NRAS Q61K, sequence (P01111 whole entry Q61K): as the sequence (P01111 whole entry G12C) above, with C12G, Q61K counted along it
NRAS Q61K, sequence (P62937 whole entry): as the sequence (P62937 whole entry) above
Procedure, shortened: as §2

NRAS WT = NRAS WT (Homo sapiens (Human), UniProt P01111+P62937); test: Ras-Raf (BRAF RBD) disruption / FRET / MOA assay, NRAS WT; conditions: read-out: IC50* NRAS WT FRET data
NRAS WT, sequence (P01111 whole entry): as the sequence (P01111 whole entry G12C) above, with C12G counted along it
NRAS WT, sequence (P62937 whole entry): as the sequence (P62937 whole entry) above
Procedure, shortened: as §2

K-Ras G13C, sequence (P01116-2 other isoform, or with tags, fused parts or gaps G13C): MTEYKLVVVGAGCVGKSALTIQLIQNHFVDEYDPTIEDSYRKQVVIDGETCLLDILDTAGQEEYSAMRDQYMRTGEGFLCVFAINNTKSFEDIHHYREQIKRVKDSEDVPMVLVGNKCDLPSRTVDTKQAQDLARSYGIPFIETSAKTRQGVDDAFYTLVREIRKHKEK
K-Ras G13C, sequence (P62937 whole entry): as the sequence (P62937 whole entry) above

SMILES	IC50 (K-Ras G13C)	IC50 (KRAS G12S)	IC50 (KRAS G12D)	IC50 (KRAS WT)	IC50 (KRAS Q61H)	IC50 (NRAS G12C)	IC50 (NRAS Q61R)	IC50 (NRAS Q61K)	IC50 (NRAS WT)
CO[C@@H](C)c1ncccc1-c1c2c3cc(ccc3n1CC(F)(F)F)N1CCO[C@@H](C[C@H](NC(=O)[C@H](C(C)C)N3CC[C@]4(CCN(C(=O)C#CC(C)(C)N(C)C)C4)C3=O)C(=O)N3CCC[C@H](N3)C(=O)OCC(C)(C)C2)C1 (atropisomer, axis not shown) [Example A642]	100 to 1000 nM	1000 to 10000 nM	> 10000 nM	1000 to 10000 nM	1000 to 10000 nM	< 10 nM	> 10000 nM	> 10000 nM	1000 to 10000 nM
CCn1c(-c2cccnc2[C@H](C)OC)c2c3cc(ccc31)N1CCO[C@@H](C[C@H](NC(=O)[C@H](C(C)C)N(C)C(=O)C3(F)CCN(C(=O)C#CC(C)(C)N(C)C)CC3)C(=O)N3CCC[C@H](N3)C(=O)OCC(C)(C)C2)C1 (atropisomer, axis not shown) [Example A647, 1-(4-(dimethylamino)-4-methylpent-2-ynoyl)-N-((2S)-1-(((2^2S,6^3S,4S)-1^1-ethyl-1^2-(2-((S)-1-methoxyethyl)pyridin-3-yl)-10,10-dimethyl-5,7-dioxo-6^1,6^2,6^3,6^4,6^5,6^6-hexahydro-1^1H-8-oxa-2(4,2)-morpholina-1(5,3)-indola-6(1,3)-pyridazinacycloundecaphane-4-yl)amino)-3-methyl-1-oxobutan-2-yl)-4-fluoro-N-methylpiperidine-4-carboxamide]	100 to 1000 nM	1000 to 10000 nM	1000 to 10000 nM	100 to 1000 nM	1000 to 10000 nM	< 10 nM	1000 to 10000 nM	1000 to 10000 nM	100 to 1000 nM
C=CC(=O)N1CC[C@]2(C1)OCN([C@H](C(=O)N[C@H]1Cc3cccc(n3)-c3ccc4c(c3)c(c(-c3cccnc3[C@H](C)OC)n4CC)CC(C)(C)COC(=O)[C@@H]3CCCN(N3)C1=O)C(C)C)C2=O (atropisomer, axis not shown) [Example A652]	100 to 1000 nM	1000 to 10000 nM	> 10000 nM	1000 to 10000 nM	1000 to 10000 nM	100 to 1000 nM	1000 to 10000 nM	1000 to 10000 nM	1000 to 10000 nM
CCn1c(-c2cccnc2[C@H](C)OC)c2c3cc(ccc31)-c1cc(CF)cc(c1)C[C@H](NC(=O)[C@H](C(C)C)N(C)C(=O)[C@H]1CCN(C(=O)C#CC(C)(C)N(C)C)C1)C(=O)N1CCC[C@H](N1)C(=O)OCC(C)(C)C2 (atropisomer, axis not shown) [Example A658]	100 to 1000 nM	1000 to 10000 nM	1000 to 10000 nM	1000 to 10000 nM	1000 to 10000 nM	< 10 nM	1000 to 10000 nM	> 10000 nM	1000 to 10000 nM
C=CC(=O)N1CC2(CCCN2C(=O)N(C)[C@H](C(=O)N[C@H]2Cc3nc(cs3)-c3ccc4c(c3)c(c(-c3cccnc3[C@H](C)OC)n4CC)CC(C)(C)COC(=O)[C@@H]3CCCN(N3)C2=O)C(C)C)C1 (atropisomer, axis not shown) [Example A667]	100 to 1000 nM	100 to 1000 nM	100 to 1000 nM	10 to 100 nM	10 to 100 nM	< 10 nM	10 to 100 nM	10 to 100 nM	10 to 100 nM
CCn1c(-c2cccnc2[C@H](C)OC)c2c3cc(ccc31)-c1cc(CF)cc(c1)C[C@H](NC(=O)[C@H](C(C)C)N1CC[C@]3(CCN(C(=O)C#CC(C)(C)N(C)C)C3)C1=O)C(=O)N1CCC[C@H](N1)C(=O)OCC(C)(C)C2 (atropisomer, axis not shown) [Example A673]	100 to 1000 nM	1000 to 10000 nM	1000 to 10000 nM	1000 to 10000 nM	100 to 1000 nM	< 10 nM	1000 to 10000 nM	1000 to 10000 nM	1000 to 10000 nM
CCn1c(-c2cccnc2[C@H](C)OC)c2c3cc(ccc31)-c1cccc(c1)C[C@H](NC(=O)[C@H](C(C)C)N(C)C(=O)C1(F)CCN(C(=O)/C=C/CN(C)C)CC1)C(=O)N1CCC[C@H](N1)C(=O)OCC(C)(C)C2 (atropisomer, axis not shown) [Example A685]	100 to 1000 nM	100 to 1000 nM	100 to 1000 nM	100 to 1000 nM	100 to 1000 nM	10 to 100 nM	100 to 1000 nM	100 to 1000 nM	100 to 1000 nM
CO[C@@H](C)c1ncccc1-c1c2c3cc(ccc3n1CC(F)(F)F)-c1cccc(c1)C[C@H](NC(=O)[C@H](C(C)C)N1CC[C@]3(CCN(C(=O)C#CC(C)(C)N(C)C)C3)C1=O)C(=O)N1CCC[C@H](N1)C(=O)OCC(C)(C)C2 (atropisomer, axis not shown) [Example A689]	100 to 1000 nM	100 to 1000 nM	1000 to 10000 nM	1000 to 10000 nM	100 to 1000 nM	< 10 nM	1000 to 10000 nM	1000 to 10000 nM	1000 to 10000 nM
CCn1c(-c2cccnc2[C@H](C)OC)c2c3cc(ccc31)-c1csc(n1)C[C@H](NC(=O)[C@H](C(C)C)N(C)C(=O)N(C)C1CN(C(=O)/C=C/C3CN(C)C3)C1)C(=O)N1CCC[C@H](N1)C(=O)OCC(C)(C)C2 (atropisomer, axis not shown) [Example A690]	100 to 1000 nM	100 to 1000 nM	1000 to 10000 nM	100 to 1000 nM	100 to 1000 nM	100 to 1000 nM	100 to 1000 nM	100 to 1000 nM	100 to 1000 nM
CO[C@@H](C)c1ncccc1-c1c2c3cc(ccc3n1CC(F)(F)F)-c1cccc(c1)C[C@H](NC(=O)[C@@H](COC1CN(C(=O)C#CC3(C)OCCO3)C1)C(C)C)C(=O)N1CCC[C@H](N1)C(=O)OCC(C)(C)C2 (atropisomer, axis not shown) [Example A703]	1000 to 10000 nM	> 10000 nM	> 10000 nM	1000 to 10000 nM	1000 to 10000 nM	10 to 100 nM	> 10000 nM	> 10000 nM	1000 to 10000 nM
C=CC(=O)N1CC(N(C)C(=O)N(C)[C@H](C(=O)N[C@H]2Cc3nc(cs3)-c3ccc4c(c3)c(c(-c3cccnc3[C@H](C)OC)n4CC(F)(F)F)CC(C)(C)COC(=O)[C@@H]3CCCN(N3)C2=O)C(C)C)C1 (atropisomer, axis not shown) [Example A711]	10 to 100 nM	100 to 1000 nM	100 to 1000 nM	10 to 100 nM	10 to 100 nM	< 10 nM	100 to 1000 nM	10 to 100 nM	10 to 100 nM
CCn1c(-c2cccnc2[C@H](C)OC)c2c3cc(ccc31)-c1csc(n1)C[C@H](NC(=O)[C@@H](COC1CN(C(=O)C#CC(C)(C)N(C)C)C1)C(C)C)C(=O)N1CCC[C@H](N1)C(=O)OCC(C)(C)C2 (atropisomer, axis not shown) [Example A721]	1000 to 10000 nM	> 10000 nM	> 10000 nM	> 10000 nM	1000 to 10000 nM	< 10 nM	> 10000 nM	> 10000 nM	1000 to 10000 nM
CO[C@@H](C)c1ncccc1-c1c2c3cc(ccc3n1CC(F)(F)F)-c1cccc(c1)C[C@H](NC(=O)[C@H](C(C)C)N(C)C(=O)[C@H]1CCN(C(=O)C#CC(C)(C)N(C)C)C1)C(=O)N1CCC[C@H](N1)C(=O)OCC(C)(C)C2 (atropisomer, axis not shown) [Example A727]	100 to 1000 nM	1000 to 10000 nM	1000 to 10000 nM	1000 to 10000 nM	1000 to 10000 nM	< 10 nM	1000 to 10000 nM	1000 to 10000 nM	1000 to 10000 nM
CCn1c(-c2cccnc2)c2c3cc(ccc31)-c1csc(c1)C[C@H](NC(=O)[C@H](C(C)C)N(C)C(=O)[C@H]1CCN(C(=O)C#CCN3CCOCC3)C1)C(=O)N1CCC[C@H](N1)C(=O)OCC(C)(C)C2 [Example A205]	> 10000 nM	> 10000 nM	> 10000 nM	> 10000 nM	> 10000 nM	1000 to 10000 nM	> 10000 nM	> 10000 nM	> 10000 nM
C=CC(=O)N1CC[C@H](C(=O)N(C)[C@H](C(=O)N[C@H]2C[C@H]3CN(CCO3)c3ccc4c(c3)c(c(-c3cccnc3COC)n4CC)CC(C)(C)COC(=O)[C@@H]3CCCN(N3)C2=O)C(C)C)C1 [Example A240]	> 10000 nM	> 10000 nM	> 10000 nM	> 10000 nM	> 10000 nM	1000 to 10000 nM	> 10000 nM	> 10000 nM	> 10000 nM

— US11566007B2, “Ras inhibitors” (Revolution Medicines, Inc., priority 2019, dated 2023)
